These are literature values, as cited in patent US6949538B2, “Compounds, compositions, and methods” (Cytokinetics, Inc., priority 2002, dated 2005).

Molecules are shown by their SMILES.

This data set concerns A549 cells. The settings on record: data provided by National Cancer Institute, Developmental Therapeutic Program.
For the molecule `COc1cccc2c1C(=O)c1c(O)c3c(c(O)c1C2=O)C[C@@](O)(C(=O)CO)C[C@@H]3O[C@H]1C[C@H](N)[C@H](O)[C@H](C)O1` [doxorubicin], the GI50 – broadly, the concentration at which growth is held to half of that of the control – was 63 nM.
`CC(=O)O[C@H]1C(=O)[C@@]2(C)[C@H]([C@H](OC(=O)c3ccccc3)[C@]3(O)C[C@H](OC(=O)[C@H](O)[C@@H](NC(=O)c4ccccc4)c4ccccc4)C(C)=C1C3(C)C)[C@]1(OC(C)=O)CO[C@@H]1C[C@@H]2O` [paclitaxel]: the GI50 was 4 nM.
As for `O=c1[nH]cc(F)c(=O)[nH]1` [5-fluorouracil], the 50% growth inhibitory concentration (GI50) was 1000 nM.
On to `NC(=O)NO` [hydroxyurea], for which the GI50 was 500000 nM.
